What was measured:
Herceptin = experiment: spot phage ELISA against Herceptin (off-target); format: binding; details: for HERCEPTIN S/W: signal minus noise (BSA); for HERCEPTIN S/W / HERCEPTIN S/N: Table 5; for HERCEPTIN S/N: signal to noise ratio; for SIGNAL: NOISE RATIO HERCEPTIN: spot phage ELISA signal against Herceptin over ELISA signal against BSA, Tables 3 and 4
Method: Phage pools of linear peptide libraries (Stanger, K. et al. Allosteric peptides bind a caspase zymogen and mediate caspase tetramerization. Nat Chem Biol 8, 655-660 (2012)) were cycled through rounds of binding selections with hFZD7 CRD-Fc following standard protocols (Tonikian et al. (2007) Nat Protoc 2, 1368-1386). Herceptin (10 μM) was included in sorting solution to block potential Fc binders during all rounds of sorting. After four rounds of binding selection, individual phage clones were analyzed in a high-throughput spot phage ELISA using plate-immobilized FZD7 CRD-Fc as target or off-target for specificity test (hFZD8 CRD-Fc and Herceptin). To measure off-target affinity, duplicate phage particle were assayed against BSA to measure non-specific binding. Clones with a phage-binding signal >0.5 and signal-to-noise ratio >10 were considered to be positive clones and were subjected to DNA sequence analysis. General data handling was done using Microsoft Excel 2010 unless otherwise noted.
In order to investigate the role of FZD7 in intestinal stem cell function, experiments were performed to identify ligands that selectively bind FZD7 CRD. A naïve linear peptide library (4-16 amino acids in length) and a cyclic peptide library were screened via phage display against FZD7 CRD-Fc. Peptides found to bind FZD7 CRD-Fc were then screened via spot phage ELISA against FZD7 CRD-Fc, FZD8 CRD-Fc, and Herceptin to identify candidates that bind FZD7 CRD but not FZD8 CRD or herceptin. The amino acid sequences of candidate FZD7 CRD-binding linear peptides are shown in Table 3 below, and the amino acid sequences of candidate FZD7 CRD-binding cyclic peptides are shown in Table 4.
Briefly, sixty Fz7-21-derived peptides (see Table 5), each containing at least one random alanine and/or valine/and/or aspartic acid and/or serine substitution, were generated and screened via spot phage ELISA (i.e., as described above) against FZD7 CRD-Fc and Herceptin.

[1] = system: Wnt3a-mediated β-catenin signaling in HEK293-TB cells; format: cell-based

Substance	HERCEPTIN S/W (Herceptin)	HERCEPTIN S/N (Herceptin)	SIGNAL: NOISE RATIO HERCEPTIN (Herceptin)	further results
67 (VPADDLAFWCHVMY) [compound 67]	0.0	1.3	–	–
55 (VAADALEFWCHVMY) [compound 55]	0.0	1.3	–	–
81 (LASDDLEFWCHVMY) [compound 81]	0.0	1.2	–	–
SDDLEFWCHVMY [dFz7-21-Δ2]	–	–	–	effect of N-terminal truncation on dFz7-21 activity ([1]; lacking the 2 N-terminal residues): did not interfere; IC50 compared with dFz7-21 ([1]; text to Table 17): comparable to that of dFz7-21
74 (APADDLAFWCHVVY) [compound 74]	0.0	1.3	–	–
31 (FWFDFWFG) [compound 31]	–	–	4.1	–
45 (APADDLEAWCHVMY) [compound 45]	0.0	1.2	–	–
97 (APSDDLAFWCHVVY) [compound 97]	0.1	2.1	–	–
34 (HLSDVCCSDWCDLVFW) [compound 34]	–	–	0.99	–
8 (FELLLDLGDLIRLW) [compound 8]	–	–	1.8	–
52 (LPADDLAVWCDVMY) [compound 52]	0.0	1.5	–	–
85 (PPADDLAFWCDVMY) [compound 85]	0.0	1.1	–	–
6 (DTDLHQWCLWFT) [compound 6]	–	–	1.1	–
56 (APSDDLAAWCHVVY) [compound 56]	0.0	1.2	–	–
61 (APADDLASWCHVMY) [compound 61]	0.0	1.3	–	–
75 (APSDDLEAWCDVMY) [compound 75]	0.0	1.3	–	–
29 (ERRVCYPWFEVSQP) [compound 29]	–	–	1.3	–
3 (PQDLLDWCHYMIVSSD) [compound 3]	–	–	1.2	–
57 (AAADDLAAWCDVMY) [compound 57]	0.0	1.4	–	–
54 (AAADDLEVWCHVMY) [compound 54]	0.0	1.4	–	–
7 (FWMLLQEGFAFWFP) [compound 7]	–	–	1.3	–

Substance	HERCEPTIN S/W (Herceptin)	HERCEPTIN S/N (Herceptin)	SIGNAL: NOISE RATIO HERCEPTIN (Herceptin)	further results
4 (ACSYVIDLWNQCLT) [compound 4]	–	–	1.1	–
59 (AAADDLEAWCAVMY) [compound 59]	0.0	1.2	–	–
14 (DTDLLQWCLWFT) [compound 14]	–	–	1.2	–
72 (APADDLEFWCHVMY) [compound 72]	0.0	1.2	–	–
84 (LPADDLAAWCHVMY) [compound 84]	0.0	1.4	–	–
37 (FDFCSVMPHFIYCPGD) [compound 37]	–	–	1.10	–
30 (LSSGKKVSSYWFNFWF) [compound 30]	–	–	3.8	–
48 (AAADDLEFWCHVMY) [compound 48]	0.0	1.2	–	–
65 (VPSDDLAFWCHVMY) [compound 65]	0.0	1.3	–	–
36 (FDFCTVMPHFIYCPGD) [compound 36]	–	–	1.13	–
22 (VFVPFSELTSLC) [compound 22]	–	–	1.1	–
78 (VPADDLASWCDVMY) [compound 78]	0.1	1.9	–	–
38 (HLSDVFCSDWCDLVFW) [compound 38]	–	–	1.14	–
44 (APSDDLEFWCHVMY) [compound 44]	0.0	1.3	–	–
58 (VASDDLEFWCHVMY) [compound 58]	0.0	1.3	–	–
60 (LAADDLESWCHVMY) [compound 60]	0.0	1.2	–	–
73 (APSDDLAAWCHVMY) [compound 73]	0.0	1.3	–	–
32 (SSDFSGCLSWCDLIFG) [compound 32]	–	–	1.22	–
90 (APADDLAFWCDVMY) [compound 90]	0.0	0.9	–	–
2 (TYFDDICNLILPWANP) [compound 2]	–	–	1.2	–
47 (VASDDLEAWCHVMY) [compound 47]	0.0	1.4	–	–

Substance	HERCEPTIN S/W (Herceptin)	HERCEPTIN S/N (Herceptin)	SIGNAL: NOISE RATIO HERCEPTIN (Herceptin)	further results
42 (APSDDVAFWCHVMY) [compound 42]	0.0	1.6	–	–
64 (APADDLEFWCHVVY) [compound 64]	0.0	1.4	–	–
79 (LPSADLESWCHVMY) [compound 79]	0.0	1.4	–	–
63 (VPADDLASWCHVMY) [compound 63]	0.0	1.2	–	–
17 (GDFWPGSLLWEILV) [compound 17]	–	–	1.2	–
39 (VAADDLAAWCHVMY) [compound 39]	0.0	1.4	–	–
76 (VPSDDLEAWCDVMY) [compound 76]	0.0	1.3	–	–
66 (VPADALAVWCDVMY) [compound 66]	0.0	1.3	–	–
83 (VPSADLETWCHVMY) [compound 83]	0.0	1.4	–	–
12 (PPNVHEGCWSMFPW) [compound 12]	–	–	1.1	–
62 (VASDDLASWCHAMY) [compound 62]	0.0	1.3	–	–
70 (AASDDLEAWCHVMY) [compound 70]	0.0	1.4	–	–
96 (APADDLESWCHVMY) [compound 96]	0.1	2.1	–	–
89 (APADDLEFWCHAMY) [compound 89]	0.0	1.4	–	–
20 (FLPDQHSHLFLPWGEP) [compound 20]	–	–	1.1	–
77 (AASDDLAFWCHVMY) [compound 77]	0.0	1.1	–	–
10 (ASELHDWCRMMFPW) [compound 10]	–	–	1.2	–
91 (APSDDLAFWCDVMY) [compound 91]	0.0	0.7	–	–
35 (TSDFSWCLSWCDLIFW) [compound 35]	–	–	1.19	–
51 (APADDLAFWCHVMY) [compound 51]	0.0	1.3	–	–
82 (LPAADLAAWCHVMY) [compound 82]	0.0	1.2	–	–

Substance	HERCEPTIN S/W (Herceptin)	HERCEPTIN S/N (Herceptin)	SIGNAL: NOISE RATIO HERCEPTIN (Herceptin)	further results
49 (AASDDLAAWCHVMY) [compound 49]	0.0	1.8	–	–
26 (FCENPYIICW) [compound 26]	–	–	1.1	–
9 (ACSYVIDLWNLCLR) [compound 9]	–	–	1.3	–
98 (AAADDLAAWCHVVY) [compound 98]	0.1	2.2	–	–
93 (AAADDLAFWCDVMY) [compound 93]	-0.2	0.4	–	–
80 (AAADDLAFWCHVMY) [compound 80]	0.0	1.4	–	–
46 (APSDDLEFWCHAMY) [compound 46]	0.0	1.3	–	–
68 (VPSDDLASWCHVMY) [compound 68]	0.0	1.4	–	–
24 (NAFWRDQCLEWFIICL) [compound 24]	–	–	1.2	–
53 (LPSDDLESWCHVMY) [compound 53]	0.0	1.2	–	–
69 (VPSADLESWCHVMY) [compound 69]	0.0	1.6	–	–
88 (VAADDLAFWCDVMY) [compound 88]	0.0	1.2	–	–
92 (LPADDLAFWCDVMY) [compound 92]	0.0	0.7	–	–
87 (AAADDVASWCHVMY) [compound 87]	0.0	1.3	–	–
27 (NPPPECFLSK) [compound 27]	–	–	1.2	–
95 (VPSDDLEFWCAVMY) [compound 95]	0.0	1.2	–	–
50 (AASDDLESWCHVMY) [compound 50]	0.0	1.2	–	–
25 (EHDLLLRAMNSFVLIF) [compound 25]	–	–	1.4	–
43 (APADDVEFWCHVMY) [compound 43]	0.0	1.8	–	–
86 (VASDDLASWCHVVY) [compound 86]	0.0	1.2	–	–
71 (APSDDLASWCHVMY) [compound 71]	0.0	1.1	–	–

Reference: patent US20190359653A1, “SELECTIVE PEPTIDE INHIBITORS OF FRIZZLED” (Genentech, Inc., priority 2016, published 2019)
